We go through two molecules from publication PMC8533176, “1,5-Benzodiazepin-2(3H)-ones: In Vitro Evaluation as Antiparkinsonian Agents” (Antioxidants, 2021).

Series [1] in a line: ABTS radical scavenging assay. Format: biochemical. Here is the method: The mixture was stored in the dark at room temperature for 16 h. […] All the compounds tested were dissolved in EtOH. […] The degree of decolorization was calculated as the percentage reduction of absorbance. […] Trolox was used as a reference antioxidant.
Series [2] is described as follows: Ferric reducing antioxidant power (FRAP) assay. The series is classed as biochemical. More on the design: FRAP Assay Trolox Equivalents: unit not given here. Here is the method:
FRAP reagent was prepared by mixing 10 mL of 300 mM acetate buffer with 1 mL of 10 mM 2,4,6-tripyridyl-S-triazine (TPTZ) in HCl 40 mM and 1mL of FeCl3·6H2O 20 mM. […] Trolox was used as assay control.

A short description of series [3]: Kinetic solubility by UV spectrometry. Format: physicochemical. The settings on record: PBS 50 mM, aqueous buffer, kinetic from dmso stock. Here is the method: A modified protocol was used from that described by Hoelke et al. for the determination of the kinetic solubility from DMSO compound solutions. A compound calibration curve (compound concentration vs UV absorption) was prepared for each compound with concentrations of 10, 20, 50, 100, and 200 µM. Each compound dilution was carried out by pipetting defined volumes of a 20 mM stock compound solution in DMSO into vials and adding PBS 50 mM to reach a final volume of 1 mL/well. The final amount of DMSO per well was 2%. For the lower compound concentrations, an additional volume of DMSO was added to each well to reach 2% DMSO. Then, 200 µL of each dilution was transferred to a new 96-well culture plate for the measurement of the UV-spectra. One well in each row was left without a compound as a blank, and its UV absorbance was used as an offset correction. The experiments were performed in duplicate.
In parallel, compound saturation solutions were reached and filtered from 20 mM compound stock in DMSO: 10 µL of a 20 mM stock solution was dispensed into 190 µL of PBS 10 mM. The solutions were mixed, shaken on a microplate shaker for two hours, and then 160 µL of each solution was filtered and transferred to a new well plate for UV absorption measurement.
Measurement of the UV-spectra was performed using a Varioskan microplate reader, and spectra were taken in the range of 270–600 nm. Spectral bandwidth was set to 5 nm, and the data pint interval was 10 nm. The experiments were carried out in triplicate.

Series [4] has as its system SH-SY5Y cells. Description: Cytotoxicity, MTT assay, SH-SY5Y. The series is classed as cell-based. The settings on record: Homo sapiens, MTT, cytotoxicity, read-out: SH-SY5Y IC50. The method, then:
(§1) All compounds tested were dissolved and eventually further diluted in dimethylsulfoxide (DMSO). After overnight incubation, the cells were treated with different compound concentrations (5, 10, 20, 50, 100, 150, 200 µM) in a final volume of 200 µL with four replicates each. […] Cell proliferation or viability was measured using the 3-(4,5-dimethylthiazol-2-yl)-2,5-diphenyl tetrazolium bromide (MTT) assay. The MTT assay was optimized taking into account the number of cells plated per well, to work in the linear part of the cell density vs. MTT absorbance calibration curve, which allows achieving a maximum absorbance in the range of 0.8–1.0 in each well at the end of the experiment. In addition to that, the number of cells seeded for each experiment was optimized in agreement with the time scale of the experiment.
(§2) After cell treatment, 20 µL of MTT (5 mg/mL) was added to each well, and the plate was incubated at 37 °C in the dark for 2 h. Supernatants were removed, and the formazan crystals were solubilized in DMSO (200 µL/well), under 10 min shaking at room temperature. The reduction of MTT was quantified by absorbance at 570 nm in a Varioskan microplate reader (Thermo Fisher Scientific, Vantaa, Finland). Effects of the test compounds on cell viability were calculated using cells treated with a vehicle as a control. For IC50 and LD50 calculations, the data were subjected to linear regression analysis, and the regression lines were plotted for the best fit. The IC50 (inhibition of cell viability) concentrations were calculated using the respective dose–response curves.
(In general: Tetrazolium dyes change colour on reduction, which living cells bring about.)

A further series deals with HepG2 cells. Put plainly: Cytotoxicity, MTT assay, HepG2. Conditions: Homo sapiens, HepG2; MTT, cytotoxicity; read-out: HepG2 IC50. Format: cell-based. Here is the method:
as §1, §2

Series [5] has as its system SH-SY5Y cells. Put plainly: LDH release under H2O2. The settings on record: H2O2 250 µM 24 h; compounds 24 h before; Figure 9. Format: cell-based, human.
For series [6], the system named is SH-SY5Y cells. Description: Neuroprotection in the 6-OHD neurotoxicity-induced model, MTT. The settings on record: 6-OHD 250 µM 48 h; compounds 24 h before. The series is classed as cell-based, human.
The test system of series [7] is SH-SY5Y cells. Put plainly: Neuroprotection in the MPP+ neurotoxicity-induced model, MTT. Format: cell-based, human. Conditions: MPP+ 700 µM 48 h; compounds 24 h before.
Series [8] concerns SH-SY5Y cells. Description: Intracellular ROS levels (DCFH2-DA). The series is classed as cell-based, human. Conditions: 400 µM H2O2 4 h; compounds 24 h before. The method, then: Intracellular ROS levels were determined using dichlorofluorescein diacetate (DCFH2-DA) according to Wang et al.. DCFH2-DA is cleaved by intracellular esterases and is oxidized by ROS to form the fluorescent compound DCF, which represents the ROS level. Therefore, 3 × 10^3 SH-SY5Y cells were seeded in 96-well culture black clear bottom plates and after 24 h were treated with the test compound for an additional 24 h. Then, they were exposed to H2O2 for 4 h. After the incubation period, cells were washed twice with Hanks buffer and loaded with 20 µM DCFH2-DA (in FBS-free culture medium) for 40 min in dark at 37 °C in a CO2 incubator. At the end of the dye incubation period, they were washed twice with Hanks buffer to remove the extracellular DCFH2-DA. Fluorescence was measured with a Varioskan microplate reader at λex = 485 nm and λem = 535 nm wavelengths. Results are expressed as a percentage of the fluorescent increase compared with that of the control. All the experiments were performed at least three times in quadruplicate for each compound concentration.

Series [9] deals with SH-SY5Y cells. Description: Mitochondrial membrane potential (JC-1). Format: cell-based, human. Conditions: 400 µM H2O2 4 h; compounds 24 h before at different concentrations. The method, then:
The fluorescent dye 5,5′,6,6′-tetrachloro-1,1′,3,3′-tetraethylbenzimidazolylcarbocyanine iodide (JC-1) was used for measuring MMP [89]. A decrease in fluorescence intensity represents mitochondrial membrane depolarization. For fluorescence ratio detection under oxidative stress conditions, 96-well culture black clear bottom plates were seeded with 3 × 10^3 SH-SY5Y cells, and after 24-h incubation, they were treated with the test compound and left out for 24 h. Then, the cells were exposed to different H2O2 concentrations for 4 h. After the incubation period, the cells were washed twice with Hanks buffer and then stained with 5 µM JC-1 in culture media in the dark in a CO2 incubator at 37 °C for 20 min. At the end of the dye incubation period, cells were washed three times with Hanks buffer, and 200 µL of fresh buffer was added. Cells were analyzed with a Varioskan microplate reader. J-aggregate red fluorescence intensity was measured at λex = 535 nm and λem = 595 nm, while λem = 485 nm and λem = 535 nm was used for J-monomer green fluorescence. Results were expressed as the ratio of fluorescence intensity of J-aggregates to J-monomers. All the experiments were performed three times in quadruplicate for each compound concentration.

Series [10] relates to SH-SY5Y cells. Description: Neuroprotection against H2O2-induced oxidative stress, MTT. The settings on record: H2O2 250 µM 24 h; compounds 5-50 µM 24 h before; Figure 8.
The subject of series [11] is SH-SY5Y cells. Description: Mitochondrial superoxide levels (MitoSOX). Format: cell-based, human. The settings on record: H2O2 250 µM; compounds 24 h before. Here is the method:
Mitochondrial superoxide levels were measured with MitoSOX red (3,8-phenanthridinediamine, 5-(60-triphenylphosphoniumhexyl)-5,6-dihydro-6-phenyl) from Molecular Probes (Thermo Fisher Scientific, 29851Willow Creek Road, Eugene, OR, USA). After SH-SY5Y cell treatment in 96-well culture black clear bottom plates, the medium was removed and cells were washed with PBS and afterward, MitoSOX red (final concentration of 5 µM) in 200 µL of PBS was added and incubated for 20 min at 37 °C. After incubation, the cells were washed with warm PBS buffer, and fluorescence was measured at 510 nm excitation/640 nm emission wavelengths in a Varioskan microplate reader (Thermo Fisher Scientific, Vantaa, Finland).

The test system of series [12] is Caspase-3 activity in SH-SY5Y cells. Put plainly: Caspase-3 activity. Format: cell-based, human. Conditions: H2O2 500 µM 4 h; compound 24 h before. Here is the method:
Caspase-3 activity was measured using the Abcam fluorimetric kit (ab39383) according to the manufacturer’s instructions. Cells are washed with ice-cold PBS and lysed with lysis buffer. After compound and stressor treatments, SH-SY5Y cells were scraped off from p6 plates and collected in a 1.5 mL Eppendorf vial. The cell suspension was then centrifuged at 9000× g for 10 min at 4 °C. The supernatant was collected and stored at −80 °C for 24 h. Caspase 3 activity was measured as the ability of the cell extract to cleave the […] fluorochrome. The sample’s protein concentration was determined by the Bradford method. The reaction assay was performed by the addition of 50 μL of the cell lysate into the wells of a black 96-well culture plate followed by the addition of 50 μL of 2× reaction buffer containing DTT (10 mM) and caspase-3 substrate DEVD-AFC (final concentration 50 μM). Reagents were mixed by shaking the plate for 2 min at 300 rpm and then incubated at 37 °C for 2 h. Caspase-3 activity was measured as fluorescence intensity in a Varioskan microplate reader at λex = 400 nm and λem = 505 nm wavelengths. Relative fluorescence units (RFU)/mg of protein were calculated, and the fold increase in Caspase-3 activity was compared with that of the control.

Series [13] deals with SH-SY5Y cells. Put plainly: Lipid peroxidation (MDA, TBARS). Format: cell-based, human. Conditions: 250 µM H2O2 24 h; 10 and 20 µM 24 h before. The method, then:
For MDA studies, 2 × 10^5 SH-SY5Y cells were seeded in 6-well culture plates. After 24 h, cells were treated with the test compound and incubated for another 24 h. After compound treatment, cells were exposed to H2O2 for 24 h. Then, the cells were washed twice with cold 50 mM PBS buffer, detached, and lysed with lysis buffer, and TBA was added to each sample tube and vortexed. The reaction mixture was incubated at 96 °C for 60 min. After incubation, samples were cooled and centrifuged 10 min at 10^4 rpm. Samples were dispensed in 96-well culture black clear bottom plates, and fluorescence was measured with a Varioskan microplate reader at λex = 540 nm and λem = 590 nm wavelengths. Protein concentration was measured by the Bradford protein assay. The levels of MDA were expressed as nmol/mg protein. Experiments were performed four times in triplicate.

A further series relates to diffSH-SY5Y cells. Description: Neuroprotection in differentiated SH-SY5Y cells, MTT. Format: cell-based, human. The settings on record: H2O2 500 µM 24 h; 0, 2, 5, 10, 20, and 40 µM 24 h before.
A short description of series [14]: Chemical reactivity with H2O2. The series is classed as physicochemical. The settings on record: H2O2 500 µM, 37 °C, 4 h; pH ≥ 7.4. The method, then: In our case, before running the protection experiments under oxidative stress conditions, we carried out experiments to assess the potential reactivity of compounds 9, 11, 13, and 18 at four different concentrations (5, 10, 20, and 40 µM) with H2O2 500 µM at 37 °C for 4 h in DMEM:F12 (without phenol red, FBS, and cells). Curcumin was used as a control compound.

The conditions of series [15]: previously reported; cited from earlier work.

Turning to `COc1cc(C2=Nc3ccccc3NC(=O)C2)cc(OC)c1OC` [Compound 20, 4-(3,4,5-Trimethoxyphenyl)-1H-1,5-benzodiazepin-2(3H)-one], the figures for the IC50 (in series [1] (30-min incubation); in the series on SH-SY5Y cells [4]; in the series on HepG2 cells) were 269 ± 27.2 µM, more than 250 µM and more than 250 µM, respectively. Further, in series [1] (Equivalent antioxidant capacity at Trolox 50 mM), the “ABTS Assay TEAC50” value is reported as 0.34. In [1] (Equivalent antioxidant capacity at Trolox 100 mM), the “ABTS Assay TEAC100” value stood at 0.18. The “FRAP Assay Trolox Equivalents” value in series [2] amounted to 0.90. Moreover, the “FRAP Assay Antioxidant Capacity (%) at 100 uM” value in series [2] (compound at 100 uM) was determined as 48.1%. The “FRAP Assay Antioxidant Capacity (%) at 200 uM” value in series [2] (compound at 200 uM) is reported as 63.8%. Besides, the solubility in series [3] was more than 200 µM. For the same molecule, the LDH leakage entry with SH-SY5Y cells [5] is recorded as “reduced LDH leakage to some degree”. In the series with SH-SY5Y cells [6], the “Neuroprotection, cell viability (MTT), 6-OHD model” value is reported as “significant neuroprotection”. Also, in the series on SH-SY5Y cells [7], the “Neuroprotection, cell viability (MTT), MPP+ model” value was “dose-dependent neuroprotection”. In addition, the “Intracellular ROS level reduction” value in the series on SH-SY5Y cells [8] was “lower ROS decrease”. Besides, the MMP recovery with SH-SY5Y cells [9] is 10–25%. The “Neuroprotection effect, cell viability (MTT)” value in the series with SH-SY5Y cells [10] is reported as “significantly improved”.

The molecule `COc1cc(/C=C/C(=O)CC(=O)/C=C/c2ccc(O)c(OC)c2)ccc1O` [Curcumin, reference compound] came in with a solubility in series [3] of less than 50 µM. The IC50 stood at 48.8 ± 5.1 µM in the series with SH-SY5Y cells [4] and 110 ± 9.8 µM in the series with HepG2 cells. Moreover, in the series with SH-SY5Y cells [5], the LDH leakage result is “reduced LDH leakage to some degree”. Besides, in the series on SH-SY5Y cells [6], the “Neuroprotection, cell viability (MTT), 6-OHD model” value is listed as “did not show any protection”. Moreover, the “Neuroprotection, cell viability (MTT), MPP+ model” value in the series on SH-SY5Y cells [7] was “did not yield any protection”. Moreover, the “Reduction in mitochondrial superoxide levels” value with SH-SY5Y cells [11] was “only a clear reduction at 20 µM”. In series [12], the Caspase-3 activity reduction result is recorded as “did not show any reduction in caspase-3 activity”. Further, the “Effect on MDA levels” value with SH-SY5Y cells [13] is “reduction of MDA levels although without statistical significance”. The “Neuroprotection, diffSH-SY5Y cell viability (MTT)” value with diffSH-SY5Y cells is recorded as “more irregular activity profile with some toxicity at 40 µM”. Besides, the “concentration decrease in the presence of H2O2” value in series [14] amounted to 30%. The water solubility in series [15] is recorded as less than 0.6 µg/mL. For the same molecule, the “Neuroprotection effect, cell viability (MTT)” value in the series with SH-SY5Y cells [10] is “only showed slight protection at concentrations 5 and 10 µM”.

As usually defined, the IC50 is the concentration needed to halve the response being measured. The solubility is the dissolved amount per volume that the medium holds.
